Results on two substances are retold here after patent publication US20030225044A1, “Method to increase serum levels of vitamins in animals including humans” (priority 2002, published 2003).

Data set [1] can be described thus: Serum Vitamin A after nasal administration or drench (Example V). The data set is classed as in vivo, beef steers. As to the method: (§1) These five treatments were:
(§2) Treatments were applied and cattle were bled via jugular venipuncture at 0, 6, and 24 hours post-dosing.

The nature of data set [2]: Serum Vitamin E after nasal administration or drench (Example VI). The data set is classed as in vivo, beef steers. As to the method: as §1, §2

Turning to Vitamin A, the “Average Serum Levels-Vitamin A” value in data set [1] (Treatment 2: positive control, 15 ml drench, 1,000,000 IU Vitamin A in 15 ml water, 6 Hours) came out at 277 ng/mL; in data set [1] (Treatment 2: positive control, 15 ml drench, 1,000,000 IU Vitamin A in 15 ml water, 24 Hours), 247 ng/mL; in data set [1] (Treatment 2: positive control, 15 ml drench, 1,000,000 IU Vitamin A in 15 ml water, time 0), 230 ng/mL; in data set [1] (Treatment 3: solid form vitamins in 2 ml ethanol, 1,000,000 IU A, 100,000 IU D, 1000 IU B, 1 ml per nostril, 6 Hours), 344 ng/mL; in data set [1] (Treatment 3: solid form vitamins in 2 ml ethanol, 1,000,000 IU A, 100,000 IU D, 1000 IU B, 1 ml per nostril, 24 Hours), 326 ng/mL; in data set [1] (Treatment 3: solid form vitamins in 2 ml ethanol, 1,000,000 IU A, 100,000 IU D, 1000 IU B, 1 ml per nostril, time 0), 302 ng/mL. Further, the “Average Serum Levels-Vitamin A” value in data set [1] (Treatment 4: vitamin E, A, D oils, Tween 80, nicotinic acid, Carbopol 934P, Pemulen TR2, NaOH, water, 1,000,000 IU A, 1 ml per nostril, 6 Hours) was determined as 314 ng/mL; in data set [1] (Treatment 4: vitamin E, A, D oils, Tween 80, nicotinic acid, Carbopol 934P, Pemulen TR2, NaOH, water, 1,000,000 IU A, 1 ml per nostril, 24 Hours), 321 ng/mL; in data set [1] (Treatment 4: vitamin E, A, D oils, Tween 80, nicotinic acid, Carbopol 934P, Pemulen TR2, NaOH, water, 1,000,000 IU A, 1 ml per nostril, time 0), 321 ng/mL; in data set [1] (Treatment 5: vitamin E, A, D oils, Tween 80, Carbopol TR2, NaOH, water, 1,000,000 IU A, 1 ml per nostril, 6 Hours) it was 349 ng/mL; in data set [1] (Treatment 5: vitamin E, A, D oils, Tween 80, Carbopol TR2, NaOH, water, 1,000,000 IU A, 1 ml per nostril, 24 Hours) it was 353 ng/mL; in data set [1] (Treatment 5: vitamin E, A, D oils, Tween 80, Carbopol TR2, NaOH, water, 1,000,000 IU A, 1 ml per nostril, time 0), 343 ng/mL. Further, the “course of serum level of Vitamin A” value in data set [1] (Treatment #3: nasal administration of Vitamin A/ethanol solution (FIG. 8, curve 810)) is recorded as “decreased from 6 to 24 hours post-dosing after an initial increase in the first 6 hours”; in data set [1] (Treatment #4, nasal (FIG. 8, curve 830)) it was “increased continuously from 6 hours to 24 hours post-dosing”; in data set [1] (Treatment #5, nasal (FIG. 8, curve 820)) it was “increased from 0 hours to 24 hours post-dosing”.
Turning to Vitamin E, the “Average Serum Level - Vitamin E” value in data set [2] (Treatment 2: positive control, 15 ml drench, 1200 IU Vitamin E in 15 ml water, 6 Hours) turned out to be 1.8 micrograms/ml; in data set [2] (Treatment 2: positive control, 15 ml drench, 1200 IU Vitamin E in 15 ml water, 24 Hours), 2.0 micrograms/ml; in data set [2] (Treatment 2: positive control, 15 ml drench, 1200 IU Vitamin E in 15 ml water, time 0), 1.8 micrograms/ml; in data set [2] (Treatment 3: solid form vitamins in 2 ml ethanol, 1,000,000 IU A, 100,000 IU D, 1000 IU E, 1 ml per nostril, 6 Hours), 2.7 micrograms/ml; in data set [2] (Treatment 3: solid form vitamins in 2 ml ethanol, 1,000,000 IU A, 100,000 IU D, 1000 IU E, 1 ml per nostril, 24 Hours) it was 2.8 micrograms/ml; in data set [2] (Treatment 3: solid form vitamins in 2 ml ethanol, 1,000,000 IU A, 100,000 IU D, 1000 IU E, 1 ml per nostril, time 0) it was 2.7 micrograms/ml. The “Average Serum Level - Vitamin E” value turned out to be 2.5 micrograms/ml in data set [2] (Treatment 4: vitamin E, A, D oils, Tween 80, nicotinic acid, Carbopol 934P, Pemulen TR2, NaOH, water, 1000 IU E, 1 ml per nostril, 6 Hours); 2.7 micrograms/ml in data set [2] (Treatment 4: vitamin E, A, D oils, Tween 80, nicotinic acid, Carbopol 934P, Pemulen TR2, NaOH, water, 1000 IU E, 1 ml per nostril, 24 Hours); 2.7 micrograms/ml in data set [2] (Treatment 4: vitamin E, A, D oils, Tween 80, nicotinic acid, Carbopol 934P, Pemulen TR2, NaOH, water, 1000 IU E, 1 ml per nostril, time 0); 2.0 micrograms/ml in data set [2] (Treatment 5: vitamin E, A, D oils, Tween 80, Pemulen TR2, NaOH, water, 1000 IU E, 1 ml per nostril, 6 Hours); 2.2 micrograms/ml in data set [2] (Treatment 5: vitamin E, A, D oils, Tween 80, Pemulen TR2, NaOH, water, 1000 IU E, 1 ml per nostril, 24 Hours); 2.1 micrograms/ml in data set [2] (Treatment 5: vitamin E, A, D oils, Tween 80, Pemulen TR2, NaOH, water, 1000 IU E, 1 ml per nostril, time 0). In addition, the “course of serum level of Vitamin E” value was “increased from 6 hours to 24 hours post-dosing” in data set [2] (Treatment #3, nasal (FIG. 9, curve 920)) and “increased from 6 hours to 24 hours post-dosing” in data set [2] (Treatment #5, nasal (FIG. 9, curve 910)).
